Key:
bacterial biofilms = assay: MBEC (Minimum Biofilm Eradication Concentration) assay using the Calgary Biofilm Device; type: cell-based; settings: for MBEC for the metal ion, Without DDAC: metal ion solution alone, adjusted to approx. pH 5.5; for MBEC for the metal ion, Without DDAC / MBEC for the metal ion, With 0.1% DDAC: lowest concentration at which activity was observed, values approximate; for MBEC for the metal ion, With 0.1% DDAC: metal ion solution in combination with 0.1% DDAC, approx. pH 5.5; for Synergy: metal ion with 0.1% DDAC versus metal ion without DDAC
[1] = test system: a range of microorganisms in the biofilm state

| Compound | Effect of EDTA on the synergistic antimicrobial activity of cationic surfactant and metal ion (bacterial biofilms; […] w/w di-sodium EDTA in each test solution) | EDTA concentration effective in making biofilm microorganisms vulnerable to antimicrobial agents [1] | MBEC for the metal ion, Without DDAC (bacterial biofilms) | MBEC for the metal ion, With 0.1% DDAC (bacterial biofilms) | Synergy (bacterial biofilms) | Effectiveness against biofilms in the MBEC model (bacterial biofilms; 0.01% w/w silver, 0.1M acetate buffer, pH 4.7 to 7.7, no surfactant) |
| --- | --- | --- | --- | --- | --- | --- |
| O=C(O)CN(CCN(CC(=O)O)CC(=O)O)CC(=O)O [EDTA, ethylenediaminetetra-acetic acid] | further enhances the synergistic antimicrobial activity | 0.25-0.5 % weight by volume |  |  |  |  |
| O=[N+]([O-])[O-].O=[N+]([O-])[O-].O=[N+]([O-])[O-].[Ga+3] [Gallium, gallium (III) nitrate] |  |  | >1000 ppm | ≦0.24 ppm | +ve |  |
| O.O.O.O.O.O.O.O=S(=O)([O-])[O-].[Fe+2] [Iron (II), iron (II) sulphate heptahydrate] |  |  | >1000 ppm | ≦0.24 ppm | +ve |  |
| O.O.O.O.[Cl][Mn][Cl] [Manganese, manganese (II) chloride tetrahydrate] |  |  | >1000 ppm | ≦0.24 ppm | +ve |  |
| O=[N+]([O-])[O-].[Ag+] [Silver, silver nitrate] |  |  | 12.5 ppm | 0.097 ppm | +ve | None of the 0.01% silver solutions pH buffered in the range 4.7 to 7.7 were effective against biofilms |
| copper (II) nitrate trihydrate |  |  | 15.6 ppm | 1.95 ppm | +ve |  |
| iron (III) sulphate hydrate |  |  | >1000 ppm | ≦0.24 ppm | +ve |  |
| zinc sulphate heptahydrate |  |  | >1000 ppm | ≦125 ppm | +ve |  |
